Results taken from patent US20130219529A1, “PROBE FOR A HAIR CELL, AND LABELLING METHOD FOR A HAIR CELL USING THE PROBE FOR A HAIR CELL” (CANON KABUSHIKI KAISHA, priority 2008, published 2013).

Tests used:
[1] = tested on: juvenile neuromast (hair cell) of Zebrafish; assay: Change in staining intensity of neuromast due to morpholino knockdown of target genes (SLC25A12, TRPC2); assay type: in vivo; details: for Ratio of staining intensity (KD/control): juveniles Day 7
Description: In order to knockdown a specific gene, a mixed solution containing a morpholino antisense oligonucleotide (MO) was prepared. MO was synthesized by using GeneTools, LLC (Philomath, Oreg.). A morpholino antisense oligonucleotide (atgMO) designed so that the translation from a start codon to a protein would be inhibited was dissolved in distilled water to prepare a MO mixed solution having the following composition.
A fertilized embryo within 1 hour after fertilization (before a second cleavage period) of Zebrafish was microinjected with the MO mixed solution. A capillary made of glass (inner diameter: 0.6 mm) having a sharp extremity obtained by extending and cutting a glass tube with a PC-10 puller (manufactured by Narishige Co., Ltd.) and grinding the cross section with a EG-400 grinder (manufactured by Narishige Co., Ltd.) was used for the microinjection. Feeding water and the fertilized embryo were placed into a 10-cm dish in which 1% agarose had been bedded, and the microinjection was performed under a stereoscopic microscope. During injection, one of a manual injector IM-9A (manufactured by Narishige Co., Ltd.) and an electrical microinjector IM-30 (manufactured by Narishige Co., Ltd.) was connected to the capillary made of glass, to thereby perform infusion with pressure. The infusion amount of MO was set to 1 to 10 ng per fertilized embryo.
Because the MO mixed solution is supplemented with a dye (0.005% phenol red), the success or failure of the infusion of the MO mixed solution may be confirmed with the naked eye. Further, because the MO mixed solution is supplemented with a fluorescent protein expression vector (EGFP), on Day 3 after infusion, the success or failure of the microinjection can be confirmed after the fertilized embryo has hatched (a sample in which a signal derived from the fluorescent protein was observed also retains MO in Zebrafish).
Juveniles (embryos on Day 7 after fertilization) of Zebrafish were stained in the same manner as that in Example 1, and a change in staining condition of the hair cell was measured.
The compound (54) was selected as the probe for a hair cell and compared with FM1-43. Further, SLC25A12 and TRPC2 were selected as target genes. The staining intensity of a juvenile neuromast having unknockdown genes was used as a control, and compared with the staining intensity of a juvenile neuromast in which each of the target genes has been knockdown by representing a fluorescence image obtained with a stereoscopic microscope in numerical values.

[2] = tested on: neuromast (hair cell) of Zebrafish; assay: Staining intensity of neuromast at different concentrations of staining agent (fluorescence intensity per unit intake time); assay type: in vivo; details: 10, 30 and 100 ng/mL staining solutions, intensity/msec
Description: The compounds (43), (54), and (65) were selected as probes for a hair cell, and compared with FM1-43. Three kinds of staining solutions containing those staining agents were prepared at concentrations of 10 ng/mL, 30 ng/mL, and 100 ng/mL. Juveniles of (embryos on Day 7 after fertilization) of Zebrafish were stained in the same manner as that in Example 1. When a fluorescence image is acquired with a fluorescence stereomicroscope, the fluorescence intensity per unit intake time (intensity/msec) was calculated by changing an intake time (exposure time) and dividing the fluorescence intensity (Relative Fluorescence Unit, RFU) of a neuromast of the obtained fluorescence image by the intake time.

hair cell of Zebrafish = details: 5 μM chemical substance, 24 hours exposure, Zebrafish Day 7 after fertilization, stained with staining compound 54
Description: Zebrafish after exposure was washed with distilled water. The same operation as that in Example 1 was performed except that the staining compound (1) used in Example 1 was changed to a staining compound (54).

[3] = Excitation and fluorescence emission wavelength measured with fluorescence spectrophotometer; assay type: physicochemical; details: aqueous solution, 10 mg/mL DMSO solution diluted 500-fold with purified water
[4] = tested on: hair cell (neuromast) of Zebrafish; assay: Staining of hair cell (neuromast) of Zebrafish juveniles with probe, fluorescence stereomicroscope image visually evaluated; assay type: in vivo; details: dye concentration 250 μg/mL, 1 hour, Zebrafish juveniles Day 7 after fertilization

Compound	Staining intensity of the hair cell compared with FM1-43 (FIG. 4) [2]	Excitation wavelength λex [3]	Fluorescence emission wavelength λem [3]	Fluorescence intensity [4]	also measured
CC/N=c1\cc2oc3cc(NCC)c(C)cc3c(-c3ccccc3C(=O)OCC)c-2cc1C [Staining compound 54]	higher	–	–	–	Increase of staining properties by knockdown of SLC25A12 and TRPC2 genes ([1]; each of SLC25A12 and TRPC2 knockdown): about 2 fold; Ratio of staining intensity (KD/control) ([1]; target gene SLC25A12 knockdown): 2.06; Ratio of staining intensity (KD/control) ([1]; target gene TRPC2 knockdown): 2.18
NCCS(=O)(=O)O [Taurine, taurine]	–	–	–	–	Change in staining intensity (hair cell of Zebrafish): No change
CCN1/C(=C\C=C\c2sc3ccccc3[n+]2CC)Sc2ccccc21 [Staining compound 65]	higher	–	–	–	–
CC[n+]1ccccc1C=Cc1ccc(N(C)C)cc1.[I-] [DASPEI, 2-(4-(dimethylamino)styryl)-N-ethylpyridinium iodide, reference compound]	–	461 nm	589 nm	+	–
CC1(C)C(/C=C/C=C/C=C/C=C2\N(CCCCS(=O)(=O)O)c3ccc4ccccc4c3C2(C)C)=[N+](CCCCS(=O)(=O)[O-])c2ccc3ccccc3c21 [ICG, indocyanine green, reference compound]	–	784 nm	811 nm	No stained	Staining pattern [4]: No stained
